Laboratory results: patent publication US20010004643A1, “Pharmaceutical composition with sotalol combination and their use in treatment of cardiac ailments” (priority 1999, published 2001)
“Also recorded” adds a separate entry of the source. Marks after values point to notes of the source that are not given here.

Legend:
[1] = system: beta adrenergic blockade, isolated right auricle preparation of rabbit; experiment: Beta blocking potency (pA2 against isoprenaline) in isolated rabbit right auricle; details: isoprenaline chronotropic response, Schild's plot
Experimental: Estimation of the beta blockade of various ratios of d- and l- isomers of sotalol was carried out in the isolated right auricle preparation of rabbit. The spontaneously beating right atrium was dissected and mounted in a 20 ml tissue bath. The resting tension on the atria was set at 1 g. The contractions were recorded using a force displacement transducer. The spontaneous contractions of the right atria were recorded isometrically and the heart rate was obtained as a derived parameter using a ratemeter that gave the output in beats per minute. Six different ratios of d and l isomers were investigated (1:1, 2:1, 3:1, 4:1, 5:1 and 1:0). Dose-response-curves (DRC) for isoprenaline in the isolated atria, using the chronotropic response were determined by cumulative addition of isoprenaline. The pA2 values of each of the ratios were estimated using the classical Schild's plot (Schild, 1957) and the values are shown in Table 1.

[2] = system: ouabain induced arrhythmia (VT, VF, mortality); experiment: Ouabain induced arrhythmia model in guinea pig; assay type: in vivo; details: for % INCIDENCE OF MORTALITY: mortality at 60 min; for deaths due to conduction block (60 min), actual incidence (value in parenthesis) / deaths due to tachyarrhythmia (60 min), actual incidence (value in parenthesis): number of animals; for % INCIDENCE OF VF / % INCIDENCE OF VT: ouabain 240 μg/kg in three doses, observed one hour; for DEATHS DUE TO CONDUCTION BLOCK (60 MIN) Percentage / DEATHS DUE TO TACHYARRHYTHMIA (60 MIN) Percentage: percentage deaths out of total mortality
Description: Method: Guinea pigs (Dunken Hartley) of either sex weighing between 400 and 500 g were used for the study. The animals were anesthetized with urethane (1.25 g/kg. i.p.). The left common carotid artery and left jugular vein were cannulated for arterial blood pressure monitoring and intravenous access respectively. Lead II electrocardiogram, arterial blood pressure, mean arterial blood pressure (MABP), heart rate were monitored throughout the experiment.
After initial surgical preparations and allowing 30 minutes for the animal to stabilise the first dose of ouabain (90 μg/kg) was administered over a period of one minute. After the interval of thirty minutes, second dose of ouabain (60 μg/kg) was administered over a period of one minute. One minute after this dose, 0.5 ml saline (in control experiments) was administered over a period of one minute. After an interval of 10 minutes a third dose of ouabain (90 μg/kg) was administered over a period of one minute. […] The test compounds were administered to animals in test group in place of saline to evaluate their antiarrhythmic potential. From the ECG recordings, the incidence of VT, VF and mortality were recorded. The doses of ratios of sotalol isomers studied were 0.1, 0.5 and 2.5 mg/kg.
Interpretation of ECG recordings: Minor disturbance in rhythm was not considered while evaluating ventricular tachyarrhythmias. A run of more than 3 ventricular ectopic beats having wide QRS complexes associated with partial haemodynamic collapse was considered as Ventricular Tachycardia (VT). Total morphological irregularity of repetitive complexes for at least six cycles associated with complete haemodynamic collapse was considered as Ventricular Fibrillation (VF). Successful arrhythmia protection was defined as no occurrence of VT and VF from the injection of saline/test drug till the end of the experiment.
Statistics: Chi square test with continuity correction at 95% confidence limit was applied to find out the statistical significance between control and test groups for incidence of VT, VF and mortality. Whenever, any of the value in a cell was less than 5, Fischer's exact probability test was used.
Results: Different ratios of sotalol in the dose range from 0.02 mg/kg to 12.5 mg/kg were studied in individual groups of animals. In all 18 groups were studied and at least 6 animals were used in each group. In control animals ouabain 240 μg/kg in three divided doses induced reproducible ventricular tachyarrhythmias in guinea pigs. It was observed that ventricular arrhythmias appeared after the administration of the third dose. Guinea pigs which responded early i.e. before or within 1 min. of administration of the second dose, were considered early responders and were not included in the study. […] In the study, control experiments were carried out randomly interspersed in test groups. Among the 42 control animals the incidence of VT was 81%, incidence of VF was 71.4% and the incidence of mortality at 60 minutes was 61.9%.

[3] = 0.5 mg/kg, number of animals of the group
[4] = 2.5 mg/kg, number of animals of the group
[5] = guinea pig, in vivo, listed as 2:1 ratio (d:l)

**Q.** How did the “pA2 Mean” value ([1]; listed as 2:1) turn out when CC(C)NCC(O)c1ccc(NS(C)(=O)=O)cc1 (stereo not shown) [2:1 RATIO, N-[4-[1-hydroxy-2-[(1-methylethyl)amino]ethyl]phenyl] methane sulfonamide] was run?
**A.** Its value is 6.28.

**Q.** What about the “protection against VF” value ([2]; 0.5 mg/kg) of the same compound?
**A.** The value was “some protection, it was not complete”.

**Q.** What about the “actual incidence of mortality (value in parenthesis)” value ([2]; 0.5 mg/kg, 60 min, number of animals of the group) of the same compound?
**A.** Its value is “(3)”.

**Q.** What about the “protection against ouabain induced VT” value ([2]; 0.5 mg/kg, listed as 2:1 ratio (d:l)) of the same compound?
**A.** The value was “some protection, it was not significant”.

**Q.** And the “% INCIDENCE OF MORTALITY” value ([2]; 0.5 mg/kg)?
**A.** Its value is 50.0%.

**Q.** And the “deaths due to conduction block (60 min), actual incidence (value in parenthesis)” value ([2]; 0.5 mg/kg)?
**A.** Its value is “(3)”.

**Q.** What about the “deaths due to tachyarrhythmia (60 min), actual incidence (value in parenthesis)” value ([2]; 0.5 mg/kg) of the same compound?
**A.** The value was “(0)”.

**Q.** What about the “actual incidence of VF (value in parenthesis)” value [2, 3] of the same compound?
**A.** The value was “(2)”.

**Q.** What about the “actual incidence of VT (value in parenthesis)” value [2, 3] of the same compound?
**A.** The value was “(3)”.

**Q.** What about the “% INCIDENCE OF VF” value ([2]; 0.5 mg/kg) of the same compound?
**A.** Its value is 33.3%.

**Q.** And the “% INCIDENCE OF VT” value ([2]; 0.5 mg/kg)?
**A.** The value was 50.0%.

**Q.** And the “DEATHS DUE TO CONDUCTION BLOCK (60 MIN) Percentage” value ([2]; 0.5 mg/kg)?
**A.** Its value is 100.0%.

**Q.** And the “DEATHS DUE TO TACHYARRHYTHMIA (60 MIN) Percentage” value ([2]; 0.5 mg/kg)?
**A.** The value was 00.0%.

**Q.** What about the protection against mortality ([2]; 2.5 mg/kg) of the same compound?
**A.** Its protection against mortality is “protected significantly”.

**Q.** And the “protection from deaths due to tachyarrhythmias” value ([2]; 2.5 mg/kg)?
**A.** Its value is “completely protected”.

**Q.** And the “protection against arrhythmias (VT and VF)” value ([2]; 2.5 mg/kg, listed as 2:1)?
**A.** Its value is “completely protects; also recorded: complete protection”.

**Q.** What about the “% INCIDENCE OF MORTALITY” value ([2]; 2.5 mg/kg) of the same compound?
**A.** Its value is 16.6%.

**Q.** And the “% INCIDENCE OF MORTALITY” value ([2]; 2.5 mg/kg, listed as 2:1)?
**A.** The value was 16.6%.

**Q.** What about the “deaths due to conduction block (60 min), actual incidence (value in parenthesis)” value ([2]; 2.5 mg/kg) of the same compound?
**A.** Its value is “(1)”.

**Q.** What about the “deaths due to tachyarrhythmia (60 min), actual incidence (value in parenthesis)” value ([2]; 2.5 mg/kg) of the same compound?
**A.** The value was “(0)”.

**Q.** What about the “actual incidence of VF (value in parenthesis)” value [2, 4] of the same compound?
**A.** Its value is “(0)*”.

**Q.** And the “actual incidence of VT (value in parenthesis)” value [2, 4]?
**A.** The value was “(0)*”.

**Q.** And the “% INCIDENCE OF VF” value ([2]; 2.5 mg/kg)?
**A.** The value was 00.0%.

**Q.** And the “% INCIDENCE OF VT” value ([2]; 2.5 mg/kg)?
**A.** Its value is 00.0%.

**Q.** And the “DEATHS DUE TO CONDUCTION BLOCK (60 MIN) Percentage” value ([2]; 2.5 mg/kg)?
**A.** Its value is 100.0%.

**Q.** What about the “DEATHS DUE TO TACHYARRHYTHMIA (60 MIN) Percentage” value ([2]; 2.5 mg/kg) of the same compound?
**A.** The value was 00.0%.

**Q.** And the “dose at which complete protection against VT was observed” value [2, 5]?
**A.** Its value is 2.5 mg/kg.

**Q.** What about the “dose that completely protected against VF” value [2, 5] of the same compound?
**A.** Its value is 2.5 mg/kg.

**Q.** What about the cause of deaths ([2]; no dose stated) of the same compound?
**A.** The cause of deaths was “due to conduction abnormalities”.

**Q.** And the “mortality compared with control groups” value ([2]; no dose stated)?
**A.** The value was “less than that of control groups”.

**Q.** Which “pA2 Mean” value [1] does the source give for CC(C)NCC(O)c1ccc(NS(C)(=O)=O)cc1 (stereo not shown) [5:1, N-[4-[1-hydroxy-2-[(1-methylethyl)amino]ethyl]phenyl] methane sulfonamide] here?
**A.** The value was 5.85.
